Data as given in patent publication US12344610B2, “APOL1 inhibitors and methods of use” (Maze Therapeutics, Inc., priority 2022, dated 2025).

Columns and labels:
Format in all cases: cell-based
APOL1 G2 = molecular target: T1, APOL1 G2 (Homo sapiens, UniProt O14791, DEL388-389); assay: APOL1-mediated calcium transport (calcium influx) assay, HEK T-REx/GCaMP6f/APOL1 G2 K6.3 cells, FLIPR TETRA; conditions: prevention of calcium influx; geometric mean of at least 2 assay runs; † = average of a technical replicate from a single assay run
T1 construct: expressed in transfected cells; host or cells: HEK293 T-REx clonal line stably expressing GCaMP6f (HEK T-REx/GCaMP6f/APOL1 G2 K6.3), doxycycline induced
T1 sequence (O14791 with tags, fused parts or gaps DEL388-389): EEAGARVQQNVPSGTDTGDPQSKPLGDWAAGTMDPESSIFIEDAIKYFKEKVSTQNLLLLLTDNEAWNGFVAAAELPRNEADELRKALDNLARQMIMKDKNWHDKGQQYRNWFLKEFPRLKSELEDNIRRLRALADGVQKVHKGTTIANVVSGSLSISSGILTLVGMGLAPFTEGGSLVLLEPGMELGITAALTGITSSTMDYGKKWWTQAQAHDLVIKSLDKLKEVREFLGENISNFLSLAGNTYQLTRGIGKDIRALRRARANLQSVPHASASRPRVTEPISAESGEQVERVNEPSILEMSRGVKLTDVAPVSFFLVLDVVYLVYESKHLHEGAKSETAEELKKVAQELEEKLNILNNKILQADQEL
Procedure, shortened: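 A HEK293 T-REx clone stably expressing GCaMP6f had APOL1 G2 induced with doxycycline (20 ng/mL solution added) for 6 h. Cells were then washed into Ca2+-free Tyrode's buffer (pH 7.4) and preincubated with compounds (duplicate 8-point) for 10 min at room temperature. Ca2+ injection to 5 mM final produced FLIPR GCaMP fluorescence, giving AC50 for influx inhibition (geometric mean, ≥2 runs).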

[1] = test system: HEK293 cells overexpressing APOL1 G2; assay: APOL1 G2 HEK293 cell rescue assay (reversal of cell death caused by overexpression of APOL1); conditions: Homo sapiens, HEK293, HEK293 overexpressing APOL1 G2; geometric mean of at least 2 assay runs; † = single assay run
Procedure, shortened: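 EC50 is the half-maximal effective concentration for reversing cell death driven by APOL1 G2 overexpression in HEK293 cells. Reported as geometric mean of at least 2 runs on separate days, each run averaging duplicate wells per plate; some values from a single run.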

[2] = test system: HEK293 clonal cell line overexpressing APOL1 G1; assay: APOL1 G1 HEK293 cell rescue assay (Example B3); conditions: Homo sapiens, HEK293, HEK293 clonal line overexpressing APOL1 G1; geometric mean of at least 2 runs; † = single run; ¥ = concentration at 50% rescue estimated (no sigmoidal curve)
Procedure, shortened: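 HEK293 clonal line overexpressing APOL1 G1; EC50 is half-maximal reversal of APOL1-induced cell death. Values are the geometric mean of ≥2 runs on separate days, each run the average of duplicate wells. Where no sigmoidal curve could be fitted, the concentration giving 50% rescue was estimated.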

SMILES	AC50 (APOL1 G2)	EC50 [1]	EC50 [2]
CC(=O)N1CCCc2cc(OCCN3CCC4(CC3)C(=O)Nc3ccc(Cl)cc34)cnc21 [Compound 80, 1′-{2-[(8-acetyl-5,6,7,8-tetrahydro-1,8-naphthyridin-3-yl)oxy]ethyl}-5-chloro-1,2-dihydrospiro[indole-3,4′-piperidin]-2-one]	375 nM	65.7 nM	178 nM
CC(=O)N1CCCc2cc(OCCN3CCC4(CC3)C(=O)Nc3ccc(C#N)cc34)cnc21 [Compound 81, 1′-{2-[(8-acetyl-5,6,7,8-tetrahydro-1,8-naphthyridin-3-yl)oxy]ethyl}-2-oxo-1,2-dihydrospiro[indole-3,4′-piperidine]-5-carbonitrile]	549 nM	280 nM	948 nM
CN1C(=O)C(C)(C)c2cc(OCCN3CCC4(CC3)C(=O)Nc3ccc(C#N)cc34)ccc21 [Compound 83, 2-oxo-1′-{2-[(1,3,3-trimethyl-2-oxo-2,3-dihydro-1H-indol-5-yl)oxy]ethyl}-1,2-dihydrospiro[indole-3,4′-piperidine]-5-carbonitrile]	718 nM	247 nM	788 nM
O=C1NCC2c3ccc(OCCN4CCC5(CC4)C(=O)Nc4ccc(Cl)cc45)cc3CCN12 (stereo not drawn) [Compound 115, 5-chloro-1′-[2-({3-oxo-1H,2H,3H,5H,6H,10bH-imidazo[4,3-a]isoquinolin-8-yl}oxy)ethyl]-1,2-dihydrospiro[indole-3,4′-piperidin]-2-one]	472 nM	94.9 nM	199 nM
N#Cc1ccc2c(c1)C1(CCN(CCOc3ccc4c(c3)CCN3C(=O)NCC43)CC1)C(=O)N2 (stereo not drawn) [Compound 118, 2-oxo-1′-[2-({3-oxo-1H,2H,3H,5H,6H,10bH-imidazo[4,3-a]isoquinolin-8-yl}oxy)ethyl]-1,2-dihydrospiro[indole-3,4′-piperidine]-5-carbonitrile]	1040 nM	431 nM	~2100 nM
O=C1CCC2c3ccc(OCCN4CCC5(CC4)C(=O)Nc4ccc(Cl)cc45)cc3CCN12 (stereo not drawn) [Compound 121, 5-chloro-1′-[2-({3-oxo-1H,2H,3H,5H,6H,10bH-pyrrolo[2,1-a]isoquinolin-8-yl}oxy)ethyl]-1,2-dihydrospiro[indole-3,4′-piperidin]-2-one]	508 nM	81.2 nM	249 nM
N#Cc1ccc2c(c1)C1(CCN(CCOc3ccc4c(c3)CCN3C(=O)CCC43)CC1)C(=O)N2 (stereo not drawn) [Compound 124, 2-oxo-1′-[2-({3-oxo-1H,2H,3H,5H,6H,10bH-pyrrolo[2,1-a]isoquinolin-8-yl}oxy)ethyl]-1,2-dihydrospiro[indole-3,4′-piperidine]-5-carbonitrile]	727 nM	297 nM	920 nM
Cc1cc(OCCN2CCC3(CC2)C(=O)Nc2ccc(C#N)cc23)cc(C)c1S(C)(=O)=O [Compound 130, 1′-[2-(4-methanesulfonyl-3,5-dimethylphenoxy)ethyl]-2-oxo-1,2-dihydrospiro[indole-3,4′-piperidine]-5-carbonitrile]	525 nM	92.3 nM	253 nM
CC(c1ccc(OCCN2CCC3(CC2)C(=O)Nc2ccc(C#N)cc23)cc1)S(C)(=O)=O (stereo not drawn) [Compound 133, 1′-{2-[4-(1-methanesulfonylethyl)phenoxy]ethyl}-2-oxo-1,2-dihydrospiro[indole-3,4′-piperidine]-5-carbonitrile]	671 nM	203 nM	885 nM
CC(c1c(F)cc(OCCN2CCC3(CC2)C(=O)Nc2ccc(Cl)cc23)cc1F)S(C)(=O)=O (stereo not drawn) [Compound 141, 5-chloro-1′-{2-[3,5-difluoro-4-(1-methanesulfonylethyl)phenoxy]ethyl}-1,2-dihydrospiro[indole-3,4′-piperidin]-2-one]	954 nM	48 nM	204 nM
CS(=O)(=O)c1ccc(OCCN2CCC3(CC2)C(=O)N(CCO)c2ccc(C#N)cc23)cc1C(F)(F)F [Compound 159, 1-(2-hydroxyethyl)-1′-{2-[4-methanesulfonyl-3-(trifluoromethyl)phenoxy]ethyl}-2-oxo-1,2-dihydrospiro[indole-3,4′-piperidine]-5-carbonitrile]	1010 nM	168 nM	588 nM
N#Cc1ccc2c(c1)C1(CCN(CCOc3ccc4c(c3)CNC4=O)CC1)C(=O)N2 [Compound 170, 2-oxo-1′-{2-[(1-oxo-2,3-dihydro-1H-isoindol-5-yl)oxy]ethyl}-1,2-dihydrospiro[indole-3,4′-piperidine]-5-carbonitrile]	1310 nM	803 nM	~2300 nM
O=C1NCc2cc(OCCN3CCC4(CC3)C(=O)Nc3ccc(Cl)cc34)ccc21 [Compound 171, 5-chloro-1′-{2-[(1-oxo-2,3-dihydro-1H-isoindol-5-yl)oxy]ethyl}-1,2-dihydrospiro[indole-3,4′-piperidin]-2-one]	598 nM	100 nM	228 nM
CC1(Oc2ncc(OCCN3CCC4(CC3)C(=O)Nc3ccc(C#N)cc34)cn2)COC1 [Compound 173, 1′-[2-({2-[(3-methyloxetan-3-yl)oxy]pyrimidin-5-yl}oxy)ethyl]-2-oxo-1,2-dihydrospiro[indole-3,4′-piperidine]-5-carbonitrile]	908 nM	289 nM	1160 nM
O=C1Nc2ccc(Cl)cc2C12CCN(CCOc1ccc(C3CCCS3(=O)=O)cc1)CC2 (stereo not drawn) [Compound 175, 2-[4-(2-{5-chloro-2-oxo-1,2-dihydrospiro[indole-3,4′-piperidin]-1′-yl}ethoxy)phenyl]-1λ^6-thiolane-1,1-dione]	381 nM	63.1 nM	153 nM
N#Cc1ccc2c(c1)C1(CCN(CCOc3ccc(C4CCCS4(=O)=O)cc3)CC1)C(=O)N2 (stereo not drawn) [Compound 178, 1′-{2-[4-(1,1-dioxo-1λ^6-thiolan-2-yl)phenoxy]ethyl}-2-oxo-1,2-dihydrospiro[indole-3,4′-piperidine]-5-carbonitrile]	550 nM	256 nM	1190 nM
O=C1OC2(COC2)c2ccc(OCCN3CCC4(CC3)C(=O)Nc3ccc(Cl)cc34)cc21 [Compound 179, 5-chloro-1′-(2-{3-oxo-3H-spiro[2-benzofuran-1,3′-oxetan]-5-yloxy}ethyl)-1,2-dihydrospiro[indole-3,4′-piperidin]-2-one]	655 nM	164 nM	484 nM
CS(=O)(=O)C1(c2ccc(OCCN3CCC4(CC3)C(=O)Nc3ccc(C#N)cc34)cc2)CC2(COC2)C1 [Compound 183, 1′-[2-(4-{6-methanesulfonyl-2-oxaspiro[3.3]heptan-6-yl}phenoxy)ethyl]-2-oxo-1,2-dihydrospiro[indole-3,4′-piperidine]-5-carbonitrile]	1520 nM	702 nM	~5800 nM
CS(=O)(=O)Nc1ccc(OCCN2CCC3(CC2)C(=O)N(CCO)c2ccc(Cl)cc23)cc1C(F)(F)F [Compound 186, N-(4-{2-[5-chloro-1-(2-hydroxyethyl)-2-oxo-1,2-dihydrospiro[indole-3,4′-piperidin]-1′-yl]ethoxy}-2-(trifluoromethyl)phenyl)methanesulfonamide]	524 nM	35.9 nM	98.8 nM
